Marks after values point to notes of the source that are not given here.
Columns and labels:
[1] = tested on: CD1 male mice, carrageenan-λ induced pleurisy; experiment: carrageenan-λ induced lung (pleural cavity) inflammation in mice; type: in vivo, mouse; conditions: 1 mg and 0.1 mg by oral gavage
[2] = tested on: BALB/C mice, TNP-OVA sensitized; experiment: reporter antigen popliteal lymph node (PLN) assay; type: in vivo, mouse; conditions: for average number of lymphocytes in PLNs: day 5
Excerpt: Analysis of immune suppression. Glucocorticoid steroids such as dexamethasone or hydrocortisone are typically immune suppressive and have significant toxicities associated with their use. Immune suppression was examined in a reporter antigen popliteal lymph node assay in mice essentially as previously described (C. Goebel et al., Inflamm. Res., 45(Suppl. 2):S85-S90, 1996; R. Pieters et al., Environmental Health Perspectives 107(Suppl. 5):673-677,1999). […] In this protocol, the vehicle was 0.1% carboxymethylcellulose, 0.9% saline, 2% tween 80 and 0.05% phenol, which contained 17α-ethynylandrost-5-ene-3β,7β,17β-triol in suspension in drug treated animals. Assessment of activity included (1) measuring suppression of numbers of total lymphocytes, antigen specific IgM, IgG1 and IgG2a antibody secreting cells (ASC) (ELISPOT assay) in popliteal lymph node cells; (2) analysis of cell surface marker (CD4, CD8, CD19, F480, CD80, CD86) expression by flow cytometry of living cells in suspension; and (3) IL-4, TNFα and IFNγ production by lymphocytes in vitro (ELISA).
Groups (n=5 per group) of specific pathogen free BALB/C mice were used. The Positive control group was treated with vehicle (oral gavage) and 5 μg/day dexamethasone by subcutaneous injection to induce immune suppression. Vehicle control animals (negative control) were treated with vehicle alone (oral gavage). One group of animals was treated with 17α-ethynylandrost-5-ene-3β,7β,17β-triol at 0.1 mg/day by oral gavage. Another group was treated with 1 mg/day of 17α-ethynylandrost-5-ene-3β,7β,17β-triol was administered to the animals oral gavage. The results were analyzed by two-tailed Student's t-test with equal variance. The animals were injected in the right hind footpad with 50 μL of freshly prepared sensitizing dose of TNP-OVA. Dexamethasone (decadron phosphate injection; dexamethasone sodium phosphate) was administered by subcutaneous injection into the nape of the neck daily, immediately following sensitization with TNP-OVA. 17α-Ethynylandrost-5-ene-3β,7β,17β-triol was given immediately afterwards by gavage. Five days after injection of TNP-OVA, blood was drawn by orbital puncture, and the mice were euthanized by cervical dislocation and popliteal lymph nodes were removed and separated from adherent fatty tissue. Single cell suspensions were prepared, resuspended in 1 mL PBS-BSA (1%) and counted. Cell numbers, IL-4, IL-5 and IFNγ were measured.

DIO mice = experiment: diet induced obesity (DIO) mouse, OGTT; type: in vivo; conditions: 20, 40 or 80 mg/kg twice a day oral gavage up to 28 days
Excerpt: Diet induced obesity (DIO) mouse hyperglycemia treatment. The effect of a drug to enhance peripheral sensitivity to insulin can be studied in a mouse model in which a state of insulin resistance is attained by feeding the animals a fat-enriched diet (60% of total caloric intake) for at least 6 weeks. This model has been described, e.g., J. N. Thupari et al., Proc. Natl. Acad. Sci. USA, 99(14):9498-9502, 2002, H. Xu et al., J. Clin. Invest., 112:1821-1830, 2003, H. Takahashi et al., J. Biol. Chem., 278(47):46654-46660, 2003.
For these studies, animals of approximately 4 weeks of age were divided into groups of 10 animals each and then treated with a vehicle control (no drug) or 17α-ethynylandrost-5-ene-3β,7β,17β-triol by oral gavage. The 17α-ethynylandrost-5-ene-3β,7β,17β-triol was administered at 20 mg/kg, 40 mg/kg or 80 mg/kg twice a day for up to 28 days. At day 14 and day 28 during the dosing period an OGTT was performed.

[3] = tested on: monocyte chemoattractant protein-1 (MCP-1); experiment: MCP-1 RNA in perigonadal fat tissue, quantitative RT/PCR; type: in vivo, mouse; conditions: 20 mg/kg; normalized with respect to the vehicle control
Method: In another study, total RNA from perigonadal fat tissue from lean db/+ or diabetic db/db mice treated with 20 mg/kg of 17α-ethynylandrost-5-ene-3β,7β,17β-triol was isolated and processed for quantitative RT/PCR using primers specific for monocyte chemoattractant protein-1 (MCP-1) using an iCycler iQ multicolor real time-detection system (Bio-Rad). RNA expression levels were normalized with respect to the vehicle control. […] For this study, vehicle was also administered to a control group of age matched lean heterozygous db/+ mice (n=7).

MG-63 cells = experiment: reversal of glucocorticoid effects in MG-63 osteosarcoma cells; type: cell-based, human; conditions: 1 nM compound; 7 hours; 30 nM dexamethasone
[4] = tested on: mice treated daily with dexamethasone; experiment: osteoprotegerin levels in dexamethasone treated mice; type: in vivo, mouse; conditions: vehicle, dexamethasone 10 μg/day and compound at 4 mg/kg/day; p<0.05
Method: Osteoprotegerin levels in mice that were treated with vehicle and dexamethasone at 10 μg/day (positive control group) had 3.3 pMol/L osteoprotegerin, while animals treated with vehicle, dexamethasone and 17α-ethynyl-5-androstene-3β,7β,17β-triol at 4 mg/kg/day had 6.4 pMol/L osteoprotegerin (p<0.05).

[5] = tested on: osteoblasts and osteocytes in murine vertebral bone; experiment: osteoblast and osteocyte apoptosis in ovariectomized mice (TUNEL); type: in vivo, mouse; conditions: ovariectomized Swiss Webster mice
Excerpt: The degree of apoptosis of osteoblasts and osteocytes in murine vertebral bone as a function of estrogen deficiency was examined. Swiss Webster mice (four months old) were ovariectomized. Twenty-eight days later, the animals were sacrificed, vertebrae were isolated, fixed and embedded, and then undecalcified in methacrylate.

androgen receptor = androgen receptor (Homo sapiens, UniProt P10275); experiment: interaction with androgen receptor
[6] = tested on: estrogen receptor-s or estrogen receptor-s; experiment: interaction with estrogen receptors
[7] = metabolic stability in liver microsomes: rat; conditions: 30 min
Method: Metabolic stability. The metabolic stability of selected compounds was examined in vitro using microsomes obtained from liver tissue according to the following protocol.
The protocol was performed as follows. (1) Prepared 0.5 mM compound in acetonitrile/water 35:65. […] (2) Set up samples as follows. […] Tubes for each compound was follows: 1-0′ 2-0′ 3-0′ 4-0′* 5-0′* 6-5 μM 7-1 μM 8-30′ 9-30′ 10-30′ where * designated denatured microsome negative control reaction tubes. For additional compounds numbering was started at 11, 21, 31, etc. (3) Added 315 μL PBS (pH 7.3-7.5) to each tube. Added 10 μL of the appropriate test article solution to each tube. (4) The internal standard/acetonitrile solution. (5) The NADPH regenerating system (NRS) was 125 μL per tube. To PBS added 1.7 mg/ml NADP, 7.8 mg/ml glucose-6-phosphate, 6 units/mL glucose-6-phosphate dehydrogenase. Fresh NRS for each experiment was kept on ice until use. (6) Each reaction used 125 μL of NRS in each tube. (7) Removed liver microsome preparation from −80° C. freezer and thawed in a room temperature water bath. The microsomal preparation was at a concentration of 20 mg/ml. […] (13) The methyl-t-butyl ether was transferred from each tube to a fresh tube and the solvent was evaporated ether under nitrogen and the precipitate was then resuspended in 100 μL acetonitrile/water 35:65 and analyzed by LCMS.

androgen receptor, sequence (P10275 whole entry, species assumed): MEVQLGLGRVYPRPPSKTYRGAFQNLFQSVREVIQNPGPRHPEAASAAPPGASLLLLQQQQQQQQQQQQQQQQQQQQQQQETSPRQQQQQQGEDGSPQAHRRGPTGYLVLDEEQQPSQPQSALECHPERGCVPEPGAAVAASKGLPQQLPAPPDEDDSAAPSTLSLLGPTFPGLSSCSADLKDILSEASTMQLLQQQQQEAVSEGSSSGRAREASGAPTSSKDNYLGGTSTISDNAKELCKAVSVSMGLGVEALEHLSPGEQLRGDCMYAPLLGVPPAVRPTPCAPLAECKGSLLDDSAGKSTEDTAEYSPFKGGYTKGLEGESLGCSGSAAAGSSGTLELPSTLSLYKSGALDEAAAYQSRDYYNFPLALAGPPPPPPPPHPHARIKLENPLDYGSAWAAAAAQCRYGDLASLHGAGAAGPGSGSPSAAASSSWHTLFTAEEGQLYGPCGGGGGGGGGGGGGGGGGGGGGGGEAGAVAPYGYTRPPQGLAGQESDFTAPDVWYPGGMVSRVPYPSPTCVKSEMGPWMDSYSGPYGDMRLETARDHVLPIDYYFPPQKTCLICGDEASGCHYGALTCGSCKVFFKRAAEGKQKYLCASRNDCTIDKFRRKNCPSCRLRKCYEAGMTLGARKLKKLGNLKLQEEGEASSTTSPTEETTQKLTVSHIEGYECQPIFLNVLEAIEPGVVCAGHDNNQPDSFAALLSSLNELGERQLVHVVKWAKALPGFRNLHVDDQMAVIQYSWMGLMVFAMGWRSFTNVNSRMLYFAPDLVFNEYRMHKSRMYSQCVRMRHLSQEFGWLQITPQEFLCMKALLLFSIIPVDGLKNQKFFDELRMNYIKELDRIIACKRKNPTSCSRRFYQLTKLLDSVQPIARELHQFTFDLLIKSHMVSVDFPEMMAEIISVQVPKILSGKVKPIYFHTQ

## C#C[C@]1(O)CC[C@H]2[C@@H]3[C@@H](O)C=C4C[C@@H](O)CC[C@]4(C)[C@H]3CC[C@@]21C [17α-ethynylandrost-5-ene-3β,7β,17β-triol]
[1]
  anti-inflammation activity versus vehicle controls: statistically significant anti-inflammation activity
[2]; 0.1 mg/day by oral gavage
  average number of lymphocytes in PLNs: 11.1×10^6 lymphocytes per lymph node
[2]; 1 mg/day by oral gavage
  average number of lymphocytes in PLNs: 8.2×10^6 lymphocytes per lymph node
[2]; compound 1.0 mg/day and 0.1 mg/day oral, dexamethasone 5 μg/day s.c.
  IFNγ, IL-4 and IL-5 levels compared to the vehicle control group: increased
DIO mice
  glucose intolerance (OGTT glycemic excursion) compared to vehicle: notably reduced glucose intolerance
[3]
  decrease of levels of MCP-1: about 50%
MG-63 cells
  reversal of the decrease in osteoprotegerin synthesis: completely reversed
[4]
  osteoprotegerin: 6.4 pmol/L
[5]
  osteoblast and osteocyte apoptosis: reduce apoptosis
Androgen receptor
  interaction with androgen receptor: do not interact
[6]
  interaction with estrogen receptor-s or estrogen receptor-s: do not interact
[7]
  parent remaining, rat microsome instead of mouse preparation: 86%* (30 min)
